In one assay the test system is iNKT cells. Kind of assay: CD69 activation on liver iNKT cells in vivo. The following applies: mice that received aGC. The procedure:
Mice were designated to groups that received PBS alone, sol aGC+solRAPA, sol aGC+NP RAPA. Mice were injected at 9 am and at 9.30 AM received BrefeldinA i.v. to prevent release of intracellular cytokines produced. At 1 pm, mice were sacrificed and the liver was perfused with PBS and processed to obtain a single cell suspension enriched for lymphocytes. Cells were stained with cell surface markers for iNKT cells (agc-loaded CD1d tetramers) and T cells receptor (TCRb) and activation marker CD69. Cells were acquired on a FacsCanto flow cytometer and analyzed on by FlowJo.

Assay [1] has as its system Treg cells (CD4+CD25highFoxP3+). Nature of the assay: Antigen-specific tolerogenic dendritic cells (tDC) activity on Treg cell development. The following applies: FIG. 3; unstimulated 1.3%. The assay is classed as cell-based, OTII mice. On the procedure:
The assay included the use of OTII mice which have a transgenic T cell receptor specific for an immune-dominant ovalbumin peptide (323-339). In order to create antigen-specific tDCs, CD11c^+ splenocytes were isolated, and the ovalbumin peptide (323-339) added in vitro at 1 μg/ml or no antigen. Soluble or nanocarrier-encapsulated rapamycin was then added to the DCs for 2 hours which were then washed extensively to remove free rapamycin from the culture. Purified responder CD4^+CD25^− cells were isolated from OTII mice and added to tDC at a 10:1 T to DC ratio. The mixture of tDC and OTII T cells were then cultured for 4-5 days, and the frequency of Treg cells (CD4^+CD25highFoxP3^+) were analyzed by flow cytometry as shown in FIG. 1. Regions were selected based on isotype controls.
Free rapamycin or synthetic nanocarriers containing rapamycin were combined with free soluble Ovalbumin (323-339) to evaluate induction of tDC (FIG. 2). […] Briefly, antigen specific tDC were obtained by isolating dendritic cells (CD11c^+ splenocytes) and culturing them in combination with the Ovalbumin (323-339) peptide plus soluble or nanocarrier encapsulated rapamycin (Synthetic Nanocarrier #s 13, 14, 15 and 16) for 2 hours followed by extensive washing. […] The mixture of tDC and OTII T cells were then cultured for 4-5 days, and the frequency of Treg cells (CD4^+CD25highFoxP3^+) were analyzed by flow cytometry.

On to `CCCCCCCCCCCCCCCCCCCCCCCCCC(=O)N[C@@H](CO[C@H]1O[C@H](CO)[C@H](O)[C@H](O)[C@H]1O)[C@H](O)[C@H](O)CCCCCCCCCCCCCC` [aGC, α-Galactosyl Ceramide (KRN7000)], for which, in the assay on iNKT cells, the “iNKT cell activation (cytokine production and up regulation of CD69)” value is on record as “activated”.
As to `CO[C@H]1C[C@@H]2CC[C@@H](C)[C@@](O)(O2)C(=O)C(=O)N2CCCC[C@H]2C(=O)O[C@H]([C@H](C)C[C@@H]2CC[C@@H](O)[C@H](OC)C2)CC(=O)[C@H](C)/C=C(\C)[C@@H](O)[C@@H](OC)C(=O)[C@H](C)C[C@H](C)/C=C/C=C/C=C/1C` [free rapamycin, Rapamycin], the “induction of FoxP3 expressing cells” value in assay [1] is listed as 2.7%.
